Assays:
Test in all cases: relative viability (nuclei count vs DMSO), 5 days (fraction); higher = more cells survive
Metformin + Luminespib = compound: CN(C)C(=N)NC(=N)N [Metformin] + CCNC(=O)c1noc(-c2cc(C(C)C)c(O)cc2O)c1-c1ccc(CN2CCOCC2)cc1 [Luminespib] (partner 0.01 µM)
In short: (§1)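 Values are medians from duplicate plates. Each reflects relative viability, defined as the nuclei count of treated wells over that of vehicle wells. Lung cancer cell lines in 1536-well plates were pin-tool dosed one day after seeding with one drug alone or with a fixed anchor-drug dose plus five library-drug doses (not always all listed) in √10 steps, then fixed, stained and imaged at 4× after 5 days.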

Metformin + Olaparib = compound: CN(C)C(=N)NC(=N)N [Metformin] + O=C(c1cc(Cc2n[nH]c(=O)c3ccccc23)ccc1F)N1CCN(C(=O)C2CC2)CC1 [Olaparib] (partner 8 µM)
In short: as §1

Apatinib + Pictilisib = compound: N#CC1(c2ccc(NC(=O)c3cccnc3NCc3ccncc3)cc2)CCCC1 [Apatinib] + CS(=O)(=O)N1CCN(Cc2cc3nc(-c4cccc5[nH]ncc45)nc(N4CCOCC4)c3s2)CC1 [Pictilisib] (partner 1 µM)
In short: as §1

Apatinib + AZD7762 = compound: N#CC1(c2ccc(NC(=O)c3cccnc3NCc3ccncc3)cc2)CCCC1 [Apatinib] + NC(=O)Nc1cc(-c2cccc(F)c2)sc1C(=O)N[C@H]1CCCNC1 [AZD7762] (partner 0.2 µM)
In short: as §1

| Cell Line | relative viability (Metformin + Luminespib; first compound 10 µM) | relative viability (Metformin + Luminespib; first compound 31.62 µM) | relative viability (Metformin + Luminespib; first compound 100 µM) | relative viability (Metformin + Luminespib; first compound 316.23 µM) | relative viability (Metformin + Luminespib; first compound 1000 µM) | relative viability (Metformin + Olaparib; first compound 10 µM) | relative viability (Metformin + Olaparib; first compound 31.62 µM) | relative viability (Metformin + Olaparib; first compound 100 µM) | relative viability (Metformin + Olaparib; first compound 316.23 µM) | relative viability (Metformin + Olaparib; first compound 1000 µM) | relative viability (Apatinib + Pictilisib; first compound 0.08 µM) | relative viability (Apatinib + Pictilisib; first compound 0.253 µM) | relative viability (Apatinib + Pictilisib; first compound 0.8 µM) | relative viability (Apatinib + Pictilisib; first compound 2.53 µM) | relative viability (Apatinib + Pictilisib; first compound 8 µM) | relative viability (Apatinib + AZD7762; first compound 0.08 µM) | relative viability (Apatinib + AZD7762; first compound 0.253 µM) | relative viability (Apatinib + AZD7762; first compound 0.8 µM) | relative viability (Apatinib + AZD7762; first compound 2.53 µM) | relative viability (Apatinib + AZD7762; first compound 8 µM) |
| --- | --- | --- | --- | --- | --- | --- | --- | --- | --- | --- | --- | --- | --- | --- | --- | --- | --- | --- | --- | --- |
| EMC-BAC-2 | 1.23 | 1.24 | 1.21 | 1.19 | 1.33 | 0.381 | 0.394 | 0.401 | 0.339 | 0.361 | 0.561 | 0.593 | 0.572 | 0.516 | 0.527 | 1.1 | 1.07 | 1.06 | 0.91 | 0.998 |
| PC-14 | 0.373 | 0.18 | 0.202 | 0.289 | 0.502 | 0.233 | 0.247 | 0.259 | 0.225 | 0.222 | 0.708 | 0.837 | 0.39 | 0.547 | 0.55 | 0.359 | 0.348 | 0.258 | 0.167 | 0.267 |
| RERF-LC-KJ | 1.11 | 1.15 | 0.979 | 0.808 | 0.864 | 0.651 | 0.715 | 0.757 | 0.625 | 0.63 | 0.591 | 0.701 | 0.438 | 0.469 | 0.462 | 0.844 | 1.02 | 1.04 | 0.779 | 0.759 |
| NCI-H2085 | 0.429 | 0.441 | 0.404 | 0.336 | 0.475 | 0.621 | 0.633 | 0.596 | 0.591 | 0.654 | 0.464 | 0.457 | 0.475 | 0.449 | 0.499 | 0.97 | 1 | 0.925 | 0.846 | 0.699 |
| LC-2-ad |  | 0.858 | 0.934 | 0.683 | 0.647 |  | 0.537 | 0.562 | 0.505 | 0.587 | 0.653 | 0.47 | 0.39 | 0.353 | 0.229 | 0.86 | 0.892 | 0.779 | 0.825 | 0.799 |
| ChaGo-K-1 | 0.599 | 0.751 | 0.67 | 0.634 | 0.696 | 0.341 | 0.343 | 0.319 | 0.26 | 0.33 |  | 0.999 | 0.721 | 0.638 | 0.725 | 0.913 | 0.853 | 0.776 | 0.711 | 0.617 |
